How the values were obtained:
Aβ plaques = target: T1, Aβ plaques (Homo sapiens, UniProt P05067); experiment: Autoradiographical analysis of binding to cryosections from cortex of AD patients and controls; details: F-18 labeled compound; Alzheimer's disease patients (AD) vs controls without Aβ plaques
T1 construct: controls without Aβ plaques; from tissue; host or cells: frontal lobe / cortex sections (frozen and paraffin) from AD patients, FTD patients and age-matched controls
Excerpt: Fresh frozen as well as paraffin embedded sections of the frontal lobe from Alzheimer's dementia patients, frontotemporal dementia patients and age matched controls were used for the study. Frozen sections, sliced at 18 μm thickness on a cryostate (Leica, Germany) and paraffin sections, sliced on a sliding microtom (Leica) at a thickness of 6 μm, were mounted onto glass slides (Superfrost Plus, Fa.Menzel, Braunschweig Germany). Frozen sections were allowed to adhere to the slides for several nights at −20° C. The paraffin sections were deparaffinized using routine histological methods. For binding studies sections were incubated with the F-18 labeled test compound at 10 Bq/μl diluted in 25 mM Hepes buffer, pH 7.4, 0.1% (BSA) (200-300 μl/slide) for 1.5 hour at room temperature in a humidified chamber. For blocking experiments a 1000-fold access of the unlabeled test substance was added to the incubation mixture. After hybridization, sections were washed four times with Hepes buffer, 0.1% BSA (or alternatively two times with 40% ethanol) and finally dipped two times into dest. water for 10 sec. The air-dried sections were exposed to imaging plates and signals were detected by a phosphoimager device (Fuji BAS5000).

[1] = Biodistribution: organ distribution of F-18 signal in mice; assay type: in vivo, male NMRI mice; details: for Organ distribution of F-18 signal, intestine: intestine (with content); for Organ distribution of F-18 signal, stomach: stomach (without content)
Description: Biodistribution and excretion studies were performed in male NMRI mice (body weight app. 30g; 3 animals per time point). The animals were kept under normal laboratory conditions at a temperature of 22±2° C. and a dark/light rhythm of 12 hours. Food and water were provided ad libitium. During an acclimation period of at least 3 days before the beginning of the study animals were clinically examined to ascertain the absence of abnormal clinical signs. At 2, 5, 30, 60, 240 min post intravenous injection via the tail vein of ca. 150 kBq in 100 μl of the test compound, urine and feces were quantitatively collected. At the same time points, animals were sacrificed by decapitation and under isoflurane anaesthesia and the following organs and tissues were removed for the determination of radioactivity using a gamma-counter: spleen, liver, kidney, lung, femur, heart, brain, fat, thyroid, muscle, skin, blood, tail, stomach (without content), testicle, intestine (with content), pancreas, adrenals, and the remaining body. For analysis the decay corrected percentage of the injected dose per tissue weight (% ID/g±standard deviation) was calculated.

T1 sequence (P05067 672-713 limits assumed): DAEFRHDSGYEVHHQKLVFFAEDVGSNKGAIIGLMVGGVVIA

O=C(NCC(=O)N1CCN(c2ccc(OCc3ccccc3)cc2)CC1)c1cccc(OCC[18F])c1 [Example 3g, N-{2-[4-(4-Benzyloxy-phenyl)-piperazin-1-yl]-2-oxo-ethyl}-3-(2-[F-18]fluoro-ethoxy)benzamide]
autoradiographical analysis of binding to cryosections from cortex (Aβ plaques): Specific binding in plaque-rich regions of AD samples
Organ distribution of F-18 signal, adrenals ([1]; 2 min post i.v. injection): 7.57 % ID/g
Organ distribution of F-18 signal, adrenals ([1]; 5 min post i.v. injection): 10.67 % ID/g
Organ distribution of F-18 signal, adrenals ([1]; 30 min post i.v. injection): 4.49 % ID/g
Organ distribution of F-18 signal, adrenals ([1]; 60 min post i.v. injection): 1.77 % ID/g
Organ distribution of F-18 signal, adrenals ([1]; 240 min post i.v. injection): 1.03 % ID/g
Organ distribution of F-18 signal, blood ([1]; 2 min post i.v. injection): 1.72 % ID/g
Organ distribution of F-18 signal, blood ([1]; 5 min post i.v. injection): 2.12 % ID/g
Organ distribution of F-18 signal, blood ([1]; 30 min post i.v. injection): 1.85 % ID/g
Organ distribution of F-18 signal, blood ([1]; 60 min post i.v. injection): 1.32 % ID/g
Organ distribution of F-18 signal, blood ([1]; 240 min post i.v. injection): 0.57 % ID/g
Organ distribution of F-18 signal, brain ([1]; 2 min post i.v. injection): 5.15 % ID/g
Organ distribution of F-18 signal, brain ([1]; 5 min post i.v. injection): 4.14 % ID/g
Organ distribution of F-18 signal, brain ([1]; 30 min post i.v. injection): 1.66 % ID/g
Organ distribution of F-18 signal, brain ([1]; 60 min post i.v. injection): 0.93 % ID/g
Organ distribution of F-18 signal, brain ([1]; 240 min post i.v. injection): 0.42 % ID/g
Organ distribution of F-18 signal, fat ([1]; 2 min post i.v. injection): 1.97 % ID/g
Organ distribution of F-18 signal, fat ([1]; 5 min post i.v. injection): 2.44 % ID/g
Organ distribution of F-18 signal, fat ([1]; 30 min post i.v. injection): 4.26 % ID/g
Organ distribution of F-18 signal, fat ([1]; 60 min post i.v. injection): 2.38 % ID/g
Organ distribution of F-18 signal, fat ([1]; 240 min post i.v. injection): 0.34 % ID/g
Organ distribution of F-18 signal, femur ([1]; 2 min post i.v. injection): 1.95 % ID/g
Organ distribution of F-18 signal, femur ([1]; 5 min post i.v. injection): 1.79 % ID/g
Organ distribution of F-18 signal, femur ([1]; 30 min post i.v. injection): 1.05 % ID/g
Organ distribution of F-18 signal, femur ([1]; 60 min post i.v. injection): 1.11 % ID/g
Organ distribution of F-18 signal, femur ([1]; 240 min post i.v. injection): 3.06 % ID/g
Organ distribution of F-18 signal, heart ([1]; 2 min post i.v. injection): 15.57 % ID/g
Organ distribution of F-18 signal, heart ([1]; 5 min post i.v. injection): 8.25 % ID/g
Organ distribution of F-18 signal, heart ([1]; 30 min post i.v. injection): 3.47 % ID/g
Organ distribution of F-18 signal, heart ([1]; 60 min post i.v. injection): 2.07 % ID/g
Organ distribution of F-18 signal, heart ([1]; 240 min post i.v. injection): 0.61 % ID/g
Organ distribution of F-18 signal, intestine ([1]; 2 min post i.v. injection): 1.93 % ID/g
Organ distribution of F-18 signal, intestine ([1]; 5 min post i.v. injection): 1.87 % ID/g
Organ distribution of F-18 signal, intestine ([1]; 30 min post i.v. injection): 4.58 % ID/g
Organ distribution of F-18 signal, intestine ([1]; 60 min post i.v. injection): 6.47 % ID/g
Organ distribution of F-18 signal, intestine ([1]; 240 min post i.v. injection): 8.50 % ID/g
Organ distribution of F-18 signal, kidney ([1]; 2 min post i.v. injection): 15.52 % ID/g
Organ distribution of F-18 signal, kidney ([1]; 5 min post i.v. injection): 14.38 % ID/g
Organ distribution of F-18 signal, kidney ([1]; 30 min post i.v. injection): 11.43 % ID/g
Organ distribution of F-18 signal, kidney ([1]; 60 min post i.v. injection): 7.70 % ID/g
Organ distribution of F-18 signal, kidney ([1]; 240 min post i.v. injection): 1.05 % ID/g
Organ distribution of F-18 signal, liver ([1]; 2 min post i.v. injection): 6.35 % ID/g
Organ distribution of F-18 signal, liver ([1]; 5 min post i.v. injection): 13.36 % ID/g
Organ distribution of F-18 signal, liver ([1]; 30 min post i.v. injection): 8.75 % ID/g
Organ distribution of F-18 signal, liver ([1]; 60 min post i.v. injection): 5.04 % ID/g
Organ distribution of F-18 signal, liver ([1]; 240 min post i.v. injection): 1.44 % ID/g
Organ distribution of F-18 signal, lung ([1]; 2 min post i.v. injection): 5.58 % ID/g
Organ distribution of F-18 signal, lung ([1]; 5 min post i.v. injection): 4.05 % ID/g
Organ distribution of F-18 signal, lung ([1]; 30 min post i.v. injection): 2.55 % ID/g
Organ distribution of F-18 signal, lung ([1]; 60 min post i.v. injection): 1.66 % ID/g
Organ distribution of F-18 signal, lung ([1]; 240 min post i.v. injection): 0.59 % ID/g
Organ distribution of F-18 signal, muscle ([1]; 2 min post i.v. injection): 3.95 % ID/g
Organ distribution of F-18 signal, muscle ([1]; 5 min post i.v. injection): 3.17 % ID/g
Organ distribution of F-18 signal, muscle ([1]; 30 min post i.v. injection): 1.95 % ID/g
Organ distribution of F-18 signal, muscle ([1]; 60 min post i.v. injection): 1.31 % ID/g
Organ distribution of F-18 signal, muscle ([1]; 240 min post i.v. injection): 0.30 % ID/g
Organ distribution of F-18 signal, pancreas ([1]; 2 min post i.v. injection): 4.96 % ID/g
Organ distribution of F-18 signal, pancreas ([1]; 5 min post i.v. injection): 4.26 % ID/g
Organ distribution of F-18 signal, pancreas ([1]; 30 min post i.v. injection): 2.21 % ID/g
Organ distribution of F-18 signal, pancreas ([1]; 60 min post i.v. injection): 1.22 % ID/g
Organ distribution of F-18 signal, pancreas ([1]; 240 min post i.v. injection): 0.32 % ID/g
Organ distribution of F-18 signal, skin ([1]; 2 min post i.v. injection): 1.72 % ID/g
Organ distribution of F-18 signal, skin ([1]; 5 min post i.v. injection): 2.15 % ID/g
Organ distribution of F-18 signal, skin ([1]; 30 min post i.v. injection): 1.93 % ID/g
Organ distribution of F-18 signal, skin ([1]; 60 min post i.v. injection): 1.29 % ID/g
Organ distribution of F-18 signal, skin ([1]; 240 min post i.v. injection): 0.42 % ID/g
Organ distribution of F-18 signal, spleen ([1]; 2 min post i.v. injection): 1.73 % ID/g
Organ distribution of F-18 signal, spleen ([1]; 5 min post i.v. injection): 2.22 % ID/g
Organ distribution of F-18 signal, spleen ([1]; 30 min post i.v. injection): 1.28 % ID/g
Organ distribution of F-18 signal, spleen ([1]; 60 min post i.v. injection): 0.86 % ID/g
Organ distribution of F-18 signal, spleen ([1]; 240 min post i.v. injection): 0.36 % ID/g
Organ distribution of F-18 signal, stomach ([1]; 2 min post i.v. injection): 4.78 % ID/g
Organ distribution of F-18 signal, stomach ([1]; 5 min post i.v. injection): 4.49 % ID/g
Organ distribution of F-18 signal, stomach ([1]; 30 min post i.v. injection): 2.20 % ID/g
Organ distribution of F-18 signal, stomach ([1]; 60 min post i.v. injection): 1.53 % ID/g
Organ distribution of F-18 signal, stomach ([1]; 240 min post i.v. injection): 0.82 % ID/g
Organ distribution of F-18 signal, tail ([1]; 2 min post i.v. injection): 8.94 % ID/g
Organ distribution of F-18 signal, tail ([1]; 5 min post i.v. injection): 9.06 % ID/g
Organ distribution of F-18 signal, tail ([1]; 30 min post i.v. injection): 4.73 % ID/g
Organ distribution of F-18 signal, tail ([1]; 60 min post i.v. injection): 2.57 % ID/g
Organ distribution of F-18 signal, tail ([1]; 240 min post i.v. injection): 1.98 % ID/g
Organ distribution of F-18 signal, testicle ([1]; 2 min post i.v. injection): 1.19 % ID/g
Organ distribution of F-18 signal, testicle ([1]; 5 min post i.v. injection): 1.58 % ID/g
Organ distribution of F-18 signal, testicle ([1]; 30 min post i.v. injection): 1.44 % ID/g
Organ distribution of F-18 signal, testicle ([1]; 60 min post i.v. injection): 1.84 % ID/g
Organ distribution of F-18 signal, testicle ([1]; 240 min post i.v. injection): 0.38 % ID/g
Organ distribution of F-18 signal, thyroid ([1]; 2 min post i.v. injection): 3.87 % ID/g
Organ distribution of F-18 signal, thyroid ([1]; 5 min post i.v. injection): 3.67 % ID/g
Organ distribution of F-18 signal, thyroid ([1]; 30 min post i.v. injection): 1.78 % ID/g
Organ distribution of F-18 signal, thyroid ([1]; 60 min post i.v. injection): 1.04 % ID/g
Organ distribution of F-18 signal, thyroid ([1]; 240 min post i.v. injection): 0.56 % ID/g
